Test results as given in patent publication US10294202B2, “Pyrrolidinones as herbicides” (FMC Corporation, priority 2013, dated 2019).

Legend:
[1] = tested on: barnyardgrass; test: Test A pre-/postemergence herbicide test; format: in vivo, Echinochloa crus-galli
In short: (§1)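 Seeds in loam–sand blend received preemergence directed soil spray; separately, plants 2–10 cm at one- to two-leaf stage received postemergence spray, both with test chemicals in non-phytotoxic solvent with surfactant. After ~10 days in greenhouse, injury rated visually against untreated controls, 0 (no effect) to 100 (complete control).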

[2] = tested on: corn; test: Test A pre-/postemergence herbicide test; format: in vivo, Zea mays
In short: as §1

[3] = tested on: morningglory; test: Test A pre-/postemergence herbicide test; format: in vivo, Ipomoea spp.
In short: as §1

[4] = tested on: rice; test: Test B flooded paddy test; format: in vivo, Oryza sativa; conditions: Flood, scale of 0 to 100 where 0 is no effect and 100 is complete control
Experimental: Plant species in the flooded paddy test selected from rice (Oryza sativa), sedge, umbrella (small-flower umbrella sedge, Cyperus difformis), ducksalad (Heteranthera limosa), and barnyardgrass (Echinochloa crus-galli) were grown to the 2-leaf stage for testing. At time of treatment, test pots were flooded to 3 cm above the soil surface, treated by application of test compounds directly to the paddy water, and then maintained at that water depth for the duration of the test. Treated plants and controls were maintained in a greenhouse for 13 to 15 days, after which time all species were compared to controls and visually evaluated. Plant response ratings, summarized in Table B, are based on a scale of 0 to 100 where 0 is no effect and 100 is complete control. A dash (-) response means no test result.

[5] = tested on: ducksalad; test: Test B flooded paddy test; format: in vivo, Heteranthera limosa; conditions: Flood, scale of 0 to 100 where 0 is no effect and 100 is complete control
In short: (§2)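 Scored visually 0–100 (0 no effect, 100 complete control) versus controls after 13 to 15 greenhouse days. Treatment: compound added to paddy water kept 3 cm above soil, on 2-leaf-stage plants.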

[6] = tested on: pigweed; test: Test A pre-/postemergence herbicide test; format: in vivo, Amaranthus retroflexus
In short: as §1

[7] = tested on: giant foxtail; test: Test A pre-/postemergence herbicide test; format: in vivo, Setaria faberii
In short: as §1

[8] = tested on: sedge, umbrella; test: Test B flooded paddy test; format: in vivo, Cyperus difformis; conditions: Flood, scale of 0 to 100 where 0 is no effect and 100 is complete control
In short: as §2

[9] = tested on: velvetleaf; test: Test A pre-/postemergence herbicide test; format: in vivo, Abutilon theophrasti
In short: as §1

[10] = tested on: wheat; test: Test A pre-/postemergence herbicide test; format: in vivo, Triticum aestivum
In short: as §1

[11] = tested on: crabgrass, large; test: Test A pre-/postemergence herbicide test; format: in vivo, Digitaria sanguinalis
In short: as §1

[12] = tested on: barnyardgrass; test: Test B flooded paddy test; format: in vivo, Echinochloa crus-galli; conditions: Flood, scale of 0 to 100 where 0 is no effect and 100 is complete control
In short: as §2

[13] = Postemergence, 125 g ai/ha, 0 to 100 scale, 0 no effect, 100 complete control
[14] = Postemergence, 500 g ai/ha, 0 to 100 scale (0 no effect, 100 complete control)
[15] = Preemergence, 125 g ai/ha, visual rating on 0 to 100 scale (0 no effect, 100 complete control)
[16] = preemergence, 500 g ai/ha, 0 to 100 scale
[17] = 125 g ai/ha, visual rating, 0 to 100 scale, 0 no effect, 100 complete control, approximately 10 days, preemergence
[18] = Postemergence, 125 g ai/ha, 0 to 100 scale, 0 is no effect, 100 is complete control
[19] = preemergence, 500 g ai/ha, 0 to 100 scale, 0 is no effect and 100 is complete control

NC1=NCC(c2ccc(F)c(F)c2)C1C(=O)Nc1ccccc1F (stereo not shown) [Compound 95, 2-amino-4-(3,4-difluorophenyl)-N-(2-fluorophenyl)dihydro-3H-pyrrole-3-carboxamide]
70: Plant response rating, Foxtail, Giant [7, 13]
60: Barnyardgrass plant response rating [1, 15]
90: Plant response rating, Barnyardgrass [1, 14] | Plant response rating, Barnyardgrass ([1]; preemergence, 500 g ai/ha, 0 to 100 scale (0 no effect, 100 complete control)) | Plant response rating, Ducksalad ([5]; 250 g ai/ha) | Plant response rating, Foxtail, Giant [7, 16] | Plant response rating, Crabgrass, Large [11, 14] | Crabgrass, Large plant response rating [11, 15] | Plant response rating, Crabgrass, Large [11, 16]
80: Plant response rating, Barnyardgrass [1, 13] | Plant response rating, Foxtail, Giant [7, 14] | Foxtail, Giant plant response rating [7, 15] | Plant response rating, Crabgrass, Large [11, 13]
0: Plant response rating, Corn [2, 13] | Plant response rating, Corn [2, 14] | Corn plant response rating [2, 15] | Plant response rating, Corn [2, 16] | Plant response rating, Morningglory [3, 13] | Plant response rating, Morningglory [3, 14] | Morningglory plant response rating [3, 15] | Plant response rating, Morningglory [3, 16] | Plant response rating, Rice ([4]; 250 g ai/ha) | Plant response rating, Pigweed [6, 13] | Plant response rating, Pigweed [6, 14] | Pigweed plant response rating [6, 15] | Plant response rating, Pigweed [6, 16] | Plant response rating, Sedge, Umbrella ([8]; 250 g ai/ha) | Plant response rating, Velvetleaf [9, 13] | Plant response rating, Velvetleaf [9, 14] | Velvetleaf plant response rating [9, 15] | Plant response rating, Velvetleaf [9, 16] | Plant response rating, Wheat [10, 13] | Plant response rating, Wheat [10, 14] | Wheat plant response rating [10, 15] | Plant response rating, Wheat [10, 16] | Plant response rating, Barnyardgrass ([12]; 250 g ai/ha)

COc1ccc(C2CNC(=O)C2C(=O)Nc2ccccc2F)cc1F (racemic) [Compound 197]
0: Plant response rating, Barnyardgrass [1, 17] | Plant response rating, Corn [2, 17] | Plant response rating, Corn [2, 18] | Corn plant response rating (0 to 100 scale, 0 is no effect, 100 is complete control) ([2]; Postemergence, 500 g ai/ha) | Plant response rating, Corn [2, 19] | Plant response rating, Morningglory [3, 17] | Plant response rating, Morningglory [3, 18] | Plant response rating, Morningglory [3, 19] | Plant response rating, Rice ([4]; 250 g ai/ha) | Plant response rating, Ducksalad ([5]; 250 g ai/ha) | Plant response rating, Pigweed [6, 17] | Plant response rating, Pigweed [6, 18] | Pigweed plant response rating (0 to 100 scale, 0 is no effect, 100 is complete control) ([6]; Postemergence, 500 g ai/ha) | Plant response rating, Pigweed [6, 19] | Plant response rating, Foxtail, Giant [7, 18] | Plant response rating, Sedge, Umbrella ([8]; 250 g ai/ha) | Plant response rating, Sedge, Umbrella ([8]; 1000 g ai/ha) | Plant response rating, Velvetleaf [9, 17] | Plant response rating, Velvetleaf [9, 18] | Velvetleaf plant response rating (0 to 100 scale, 0 is no effect, 100 is complete control) ([9]; Postemergence, 500 g ai/ha) | Plant response rating, Velvetleaf [9, 19] | Plant response rating, Wheat [10, 17] | Plant response rating, Wheat [10, 18] | Wheat plant response rating (0 to 100 scale, 0 is no effect, 100 is complete control) ([10]; Postemergence, 500 g ai/ha) | Plant response rating, Wheat [10, 19] | Plant response rating, Barnyardgrass ([12]; 250 g ai/ha)
40: Foxtail, Giant plant response rating (0 to 100 scale, 0 is no effect, 100 is complete control) ([7]; Postemergence, 500 g ai/ha)
10: Morningglory plant response rating (0 to 100 scale, 0 is no effect, 100 is complete control) ([3]; Postemergence, 500 g ai/ha) | Plant response rating, Rice ([4]; 1000 g ai/ha)
100: Plant response rating, Crabgrass, Large [11, 19]
50: Plant response rating, Crabgrass, Large [11, 18]
30: Plant response rating, Barnyardgrass [1, 18] | Plant response rating, Foxtail, Giant [7, 17] | Plant response rating, Barnyardgrass ([12]; 1000 g ai/ha)
70: Barnyardgrass plant response rating (0 to 100 scale, 0 is no effect, 100 is complete control) ([1]; Postemergence, 500 g ai/ha) | Plant response rating, Barnyardgrass [1, 19] | Crabgrass, Large plant response rating (0 to 100 scale, 0 is no effect, 100 is complete control) ([11]; Postemergence, 500 g ai/ha)
80: Plant response rating, Foxtail, Giant [7, 19] | Plant response rating, Crabgrass, Large [11, 17]
75: Plant response rating, Ducksalad ([5]; 1000 g ai/ha)
